Like-named read-outs stand apart in the source and are kept apart here. Square brackets hold non-standard residues; d marks the D form. Peptide text beside a SMILES is read from it. * marks the point of attachment. Bn = c1ccc(C*)cc1; Sar = CNCC(=O)O; tBu = CC(C)(C)*
What was measured:
[1] = Cytotoxicity assay, WST-1; conditions: human, CC50 A549 cells
in vitro = conditions: African green monkey
[2] = system: SARS-CoV-2 (βCoV/KOR/KCDC03/2020); test: microbe, parasite or virus in culture; format: cell-based
MPro = conditions: compiled from peer-reviewed sources (287 compounds) ref the 18 original articles; cited from earlier work
SARS-CoV-2 MPro = SARS-CoV-2 MPro (Severe acute respiratory syndrome coronavirus 2, UniProt P0DTD1); test: MPro activity assay (de-quenching of Edans fluorescence on cleavage of a Dabcyl/Edans peptide); format: biochemical; conditions: for Class (MPro activity class): in-house acquired data, internal screening under standardized conditions (128 compounds)
[3] = Severe acute respiratory syndrome coronavirus 2, Vero, 24 h

## O=c1c2ccccc2[se]n1-c1ccccc1 [Ebselen]
[1]
  CC50 at 24 h: > 100 µM
In vitro
  CC50: > 50 µM
[2]
  IC50: 9.7 µM
[2]; [3]
  IC50: 10 µM

## Cc1cccc(C)c1OCC(=O)N[C@@H](Cc1ccccc1)[C@@H](O)C[C@H](Cc1ccccc1)NC(=O)[C@H](C(C)C)N1CCCNC1=O [Lopinavir]
In vitro
  CC50: > 150 µM
MPro
  Class (MPro activity class): 0 (compounds with IC50 > 20 μM, percentage inhibition <80% at 20 µM or 50 μM, or percentage enzyme inhibition <50% at 10 µM were labelled as INACTIVE)
[2]
  IC50: 21.5 µM
[2]; [3]
  IC50: 22 µM

## CCN(CC)c1ccc(-c2ccc(C(=O)OC)cc2)cc1 [Mal1]
SARS-CoV-2 MPro
  Class (MPro activity class): 0 (compounds with IC50 > 20 μM, percentage inhibition <80% at 20 µM or 50 μM, or percentage enzyme inhibition <50% at 10 µM were labelled as INACTIVE)

## COC(=O)c1ccc(-c2ccc(C3C(Oc4ccccc4)C(=O)N3Cc3ccccc3)cc2)cc1 (centres unmarked) [Mal2]
SARS-CoV-2 MPro
  Class (MPro activity class): 0 (compounds with IC50 > 20 μM, percentage inhibition <80% at 20 µM or 50 μM, or percentage enzyme inhibition <50% at 10 µM were labelled as INACTIVE)

## O=C1C(Oc2ccccc2)C(c2ccc(B(O)O)cc2)N1Cc1ccccc1 (centres unmarked) [Mal3]
SARS-CoV-2 MPro
  Class (MPro activity class): 0 (compounds with IC50 > 20 μM, percentage inhibition <80% at 20 µM or 50 μM, or percentage enzyme inhibition <50% at 10 µM were labelled as INACTIVE)

## CC(C)(C)OC(=O)N1CCC(Oc2cc(C(=O)NCC(=O)O)ccc2NC(=O)c2cc(Br)c(Br)[nH]2)CC1 [UL-DBT26]
SARS-CoV-2 MPro
  Class (MPro activity class): 0 (compounds with IC50 > 20 μM, percentage inhibition <80% at 20 µM or 50 μM, or percentage enzyme inhibition <50% at 10 µM were labelled as INACTIVE)

## Cc1[nH]c(C(=O)Nc2ccc(C(=O)O)cc2)c(Cl)c1Cl [UL-NNS 38-1]
SARS-CoV-2 MPro
  Class (MPro activity class): 0 (compounds with IC50 > 20 μM, percentage inhibition <80% at 20 µM or 50 μM, or percentage enzyme inhibition <50% at 10 µM were labelled as INACTIVE)

## Nc1ncc2cc(-c3c(F)cccc3F)c(N)nc2n1 [ZEA107]
SARS-CoV-2 MPro
  Class (MPro activity class): 0 (compounds with IC50 > 20 μM, percentage inhibition <80% at 20 µM or 50 μM, or percentage enzyme inhibition <50% at 10 µM were labelled as INACTIVE)

## Nc1ncc2cc(-c3ccc4c(c3)OCO4)c(N)nc2n1 [ZVR108]
SARS-CoV-2 MPro
  Class (MPro activity class): 0 (compounds with IC50 > 20 μM, percentage inhibition <80% at 20 µM or 50 μM, or percentage enzyme inhibition <50% at 10 µM were labelled as INACTIVE)

## Nc1nc2nc(NCCCN3CCOCC3)ncc2cc1-c1c(Cl)cccc1Cl [ZVR130]
SARS-CoV-2 MPro
  Class (MPro activity class): 0 (compounds with IC50 > 20 μM, percentage inhibition <80% at 20 µM or 50 μM, or percentage enzyme inhibition <50% at 10 µM were labelled as INACTIVE)

## COc1cc(OC)cc(-c2cc3cnc(N)nc3nc2N)c1 [ZVR-100]
SARS-CoV-2 MPro
  Class (MPro activity class): 0 (compounds with IC50 > 20 μM, percentage inhibition <80% at 20 µM or 50 μM, or percentage enzyme inhibition <50% at 10 µM were labelled as INACTIVE)

## Nc1ncc(C(=O)N(Cc2ccccc2)Cc2ccccc2)o1 [ZVR-102]
SARS-CoV-2 MPro
  Class (MPro activity class): 0 (compounds with IC50 > 20 μM, percentage inhibition <80% at 20 µM or 50 μM, or percentage enzyme inhibition <50% at 10 µM were labelled as INACTIVE)

## CCCCN(CCCC)C(=O)c1cnc(N)o1 [ZVR-103]
SARS-CoV-2 MPro
  Class (MPro activity class): 0 (compounds with IC50 > 20 μM, percentage inhibition <80% at 20 µM or 50 μM, or percentage enzyme inhibition <50% at 10 µM were labelled as INACTIVE)

## CCn1nc(C)cc1C(=O)N(Cc1ccccc1)Cc1ccccc1 [ZVR-117]
SARS-CoV-2 MPro
  Class (MPro activity class): 0 (compounds with IC50 > 20 μM, percentage inhibition <80% at 20 µM or 50 μM, or percentage enzyme inhibition <50% at 10 µM were labelled as INACTIVE)

## Cc1nc(N)sc1C(=O)N(Cc1ccccc1)Cc1ccccc1 [ZVR-119]
SARS-CoV-2 MPro
  Class (MPro activity class): 0 (compounds with IC50 > 20 μM, percentage inhibition <80% at 20 µM or 50 μM, or percentage enzyme inhibition <50% at 10 µM were labelled as INACTIVE)

## CC(C)(C)OC(=O)Nc1cccn(C(CC2CCCCC2)C(=O)NC(CC2CCNC2=O)C(=O)C(=O)NC2CC2)c1=O (centres unmarked) [compound 13a]
MPro
  Class (MPro activity class): 1 (Compounds with IC50 < 10 µM or with a percentage of enzyme inhibition >50% at 10 µM were labelled as ACTIVE)
SARS-CoV-2 MPro; read-out: % activity MPro
  activity at 10 µM: 98.6 ± 0.9%

## CCOC(=O)CN(C(=O)C1(C)CCc2c(C)c(O)c(C)c(C)c2O1)C(C(=O)NCCc1ccccc1)c1ccccc1 (centres unmarked) [vCOV194134]
SARS-CoV-2 MPro
  Class (MPro activity class): 0 (compounds with IC50 > 20 μM, percentage inhibition <80% at 20 µM or 50 μM, or percentage enzyme inhibition <50% at 10 µM were labelled as INACTIVE)

## CC(OC(C)(C)C)C1NC(=O)CN(C)C(=O)C(Cc2ccccc2)NC(=O)CN(C)C1=O (centres unmarked) [vCOV194214] (cyclo([Sar]F[Sar]T(tBu)); configuration not given here)
SARS-CoV-2 MPro
  Class (MPro activity class): 0 (compounds with IC50 > 20 μM, percentage inhibition <80% at 20 µM or 50 μM, or percentage enzyme inhibition <50% at 10 µM were labelled as INACTIVE)

## CN1CC(=O)NC(Cc2ccccc2)C(=O)N(C)CC(=O)NC(CSCc2ccccc2)C1=O (centres unmarked) [vCOV194219] (cyclo([Sar]C(Bn)[Sar]F); configuration not given here)
SARS-CoV-2 MPro
  Class (MPro activity class): 0 (compounds with IC50 > 20 μM, percentage inhibition <80% at 20 µM or 50 μM, or percentage enzyme inhibition <50% at 10 µM were labelled as INACTIVE)
